{"source": "patent US20230285282A1", "about": "“OCULAR IMPLANT CONTAINING AN ACTIVE INGREDIENT” (OCULAR THERAPEUTIX, INC., priority 2020, published 2023)", "key": {"[1]": {"conditions": "1.25 mg intravitreal, rabbits; cited from earlier work"}, "vascular leakage": {"system": "vascular leakage", "assay": "VEGF challenge, vascular leakage scored by fluorescein angiography", "type": "in vivo, Dutch belted rabbits", "protocol": "For efficacy studies, 12 animals (with and without the implant) received an […] VEGF challenge (1 μg) 48 hours prior to selected time points (1, 2, 3, and 6 months after implant injection; 3 animals euthanized at each time point) to induce vascular proliferation and leakage. Rabbits were followed for 6 months from the administration of the implant. Eyes were imaged 48 hours post VEGF challenge using fluorescein angiography (FA) after intravenous injection of fluorescein and were graded on a scale from 0 to 4 (Table 9). Each eye was scored on the left and right side to account for non-uniformity in inflammatory response. FA scores were then averaged for each eye.\nAnimals from each group were […] challenged with VEGF (1 μg) 48 hours prior to selected time points (0.5, 1, 3, 6, 9, 12, 14, 16, 19, 20, and 21 months) to induce vascular proliferation and leakage. Eyes were imaged 48 hours post VEGF challenge time-points using fluorescein angiography (FA) and were graded on a scale from 0 (normal) to 4 (severe leakage) as described under Example 3.2."}, "[2]": {"conditions": "cited from earlier work"}, "physchem": {"assay": "physchem", "conditions": "PBS, 37 °C, pH 7.2, aqueous buffer"}, "CYP3A4/5": {"system": "CYP3A4/5", "conditions": "cited from earlier work"}}, "note": "Read-outs that look alike come from different tables or passages of the source."}
{"molecule": "Avastin®: anti-VEGF therapeutic", "values": [{"measurement": "half-life", "setting": "[1]", "result": 158, "unit": "h"}, {"measurement": "duration of effect post injection", "setting": "vascular leakage; 1.25 mg Avastin only", "result": "≤ 3", "unit": "months"}, {"measurement": "vascular leakage after VEGF challenge", "setting": "vascular leakage; 1.25 mg Avastin only (group 3)", "result": "after 3 months vascular leakage re-occurred"}]}
{"molecule": "ranibizumab: anti-VEGF agent", "values": [{"measurement": "t1/2 in the human eye", "setting": "[2]", "result": "several days"}]}
{"molecule": "CNC(=O)c1ccccc1Sc1ccc2c(/C=C/c3ccccn3)n[nH]c2c1", "note": "[axitinib, N-methyl-2-[3-((E)-2-pyridin-2-yl-vinyl)-1H-indazol-6-ylsulfanyl]-benzamide]", "values": [{"measurement": "solubility", "setting": "physchem", "result": "0.4 to 0.5", "unit": "µg/mL"}, {"measurement": "axitinib exposure (Cmax)", "setting": "CYP3A4/5; co-administration with oral ketoconazole", "result": "increased"}, {"measurement": "axitinib exposure (Cmax)", "setting": "CYP3A4/5; co-administration with rifamycin", "result": "decreased"}, {"measurement": "clearance half-life (t1/2)", "setting": "[2]; Rugo et al. 2005", "result": "a few hours"}]}
{"molecule": "aflibercept: anti-VEGF agent", "values": [{"measurement": "t1/2 in the human eye", "setting": "[2]", "result": "several days"}]}
